# Experimental data: patent publication US11590167B2, “Methods and compositions for use of therapeutic T cells in combination with kinase inhibitors” (Juno Therapeutics, Inc., priority 2016, dated 2023)
# pIC50: −log10 of the molar value.
# Columns and labels:
# [1] = observed Cmax quoted for dosage range; cited from earlier work
# anti-CD19 CAR T cells [2] = test: Cytolytic activity of anti-CD19 CAR T cells co-cultured with K562-CD19 target cells (IncuCyte); assay type: cell-based, human; conditions: E:T 2.5:1, four days, three healthy donors; ibrutinib 0.5-5000 nM; compound of Formula (II) 50 to 5000 nM
# From the text: (§1) To generate CAR-expressing T cells, T cells were isolated by immunoaffinity-based enrichment from three healthy human donor subjects, and cells from each donor were activated and transduced with a viral vector encoding an anti-CD19 CAR. The CAR contained an anti-CD19 scFv, an Ig-derived spacer, a human CD28-derived transmembrane domain, a human 4-1BB-derived intracellular signaling domain and a human CD3 zeta-derived signaling domain. The nucleic acid construct encoding the CAR also included a truncated EGFR (tEGFR) sequence for use as a transduction marker, separated from the CAR sequence by a self-cleaving T2A sequence.
# (§2) CAR-expressing CD4+ and CD8+ cells were mixed 1:1 for each donor, individually, and the pooled cells for each donor assessed in vitro under various conditions.
# CAR T cells generated as described above were plated in triplicate on Poly-D-Lysine plates and then co-cultured with ibrutinib-resistant, CD19-expressing target cells (K562 cells transduced to express CD19, K562-CD19) at an effector to target (E:T) ratio of 2.5:1. The targets cells were labeled with NucLight Red (NLR) to permit tracking of target cells by microscopy. […] Cytolytic activity was assessed by measuring the loss of viable target cells over a period of four days, as determined by red fluorescent signal (using the IncuCyte® Live Cell Analysis System, Essen Bioscience).
# anti-CD19 CAR T cells [3] = test: Expression of CAR-T cell surface markers over 4 days after stimulation with irradiated K562-CD19 (flow cytometry); assay type: cell-based, human; conditions: four days after initial stimulation
# From the text: as §1, §2
# CAR-T cells generated as described above were plated at 100,000 cells/well on 96 well Poly-D-Lysine coated plates. Irradiated K562-CD19 target cells were added at an effector to target ratio of 2.5:1.
# RLK/TXK = biological target: T1, RLK/TXK (Homo sapiens, UniProt P42681); conditions: literature value given as embodiment; read-out: IC50 value, inhibitory activity against RLK/TXK; cited from earlier work
# T1 sequence (P42681 1-527): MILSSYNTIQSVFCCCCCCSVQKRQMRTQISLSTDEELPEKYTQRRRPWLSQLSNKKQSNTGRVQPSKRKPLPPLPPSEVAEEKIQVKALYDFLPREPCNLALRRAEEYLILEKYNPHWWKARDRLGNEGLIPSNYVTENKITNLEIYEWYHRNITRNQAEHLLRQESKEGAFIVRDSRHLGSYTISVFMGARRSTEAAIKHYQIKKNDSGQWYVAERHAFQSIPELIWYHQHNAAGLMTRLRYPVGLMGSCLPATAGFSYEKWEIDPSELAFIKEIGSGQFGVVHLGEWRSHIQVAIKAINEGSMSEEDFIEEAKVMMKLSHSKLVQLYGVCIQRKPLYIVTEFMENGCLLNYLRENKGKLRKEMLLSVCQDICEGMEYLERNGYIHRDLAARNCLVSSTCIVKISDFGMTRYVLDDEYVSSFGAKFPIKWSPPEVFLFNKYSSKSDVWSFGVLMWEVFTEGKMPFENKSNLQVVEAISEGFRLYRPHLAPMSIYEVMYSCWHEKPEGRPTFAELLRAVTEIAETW
# [4] = system: Nalm-6 cells expressing firefly luciferase; test: Nalm-6 disseminated tumor xenograft mouse model, inhibitor in drinking water with suboptimal anti-CD19 CAR T dose; assay type: in vivo, NSG mice
# Method: To permit assessment of the effect of a combination therapy with the inhibitor, a suboptimal dose of anti-CD19 CAR T cells was i.v. injected into the mice at 5×10^5/mouse at day 5. As a control, mice were administered the vehicle control without administration of the CAR-T cells or inhibitor.
# Following treatment as described above, the tumor growth and percent survival of treated mice was determined.
# anti-CD19 CAR-T cells = test: Serial restimulation assay, expansion of anti-CD19 CAR-T cells; assay type: cell-based, human
# Method: The ability of cells to expand ex vivo following repeated stimulations in some aspects can indicate capacity of CAR-T cells to persist (e.g., following initial activation) and/or is indicative of function and/or fitness in vivo (Zhao et al. (2015) Cancer Cell, 28:415-28). Anti-CD19 CAR-T cells generated as described above were plated in triplicate at 100,000 cells/well on 96 well Poly-D-Lysine coated plates, and irradiated target cells (K562-CD19) were added at an effector to target ratio of 2.5:1. […] A total of 7 rounds of stimulation during a 25 day culture period were carried out.
# For each round of stimulation, the fold change in cell number and the number of doublings was determined. […] Expansion kinetics were similar in all treatment groups after three rounds of stimulation (day 11), as observed by fold change and number of population doublings. […] The cells derived from the two donors in which these differences were observed, generally, as compared to those derived from the other donor, performed less well in the serial restimulation assay in the absence of either inhibitor.
# [5] = system: CAR+ T cells harvested from bone marrow; test: Ex vivo immunophenotyping (t-SNE) of CAR+ T cells harvested from bone marrow; assay type: in vivo, NSG mice; conditions: day 12 post CAR T transfer
# Method: NSG mice described in Example 2 were intravenously injected on day 0 with 5×10^5 Nalm-6 cells expressing firefly luciferase. […] A bridging experiment confirmed that administration of ibrutinib by drinking water was equivalent to oral gavage administration (data not shown). To permit assessment of the effect of a combination therapy with the inhibitor, a suboptimal dose of anti-CD19 CAR T cells was i.v. injected into the mice at 5×10^5/mouse at day 5. As a control, mice were administered the vehicle control without administration of the CAR-T cells or inhibitor.
# Cells were assessed for surface markers CD44, CD45RA, CD62L, CD154, CXCR3, CXCR4, PD-1 by flow cytometry and T-distributed stochastic neighbor embedding (t-SNE) high dimensional analysis was performed using FlowJo software. […] Using multivariate t-SNE FACS analysis based on pooled analysis from three mice per group, 4 distinct population clusters were identified (FIG. 8B). FACs histograms showing the individual expression profiles of CD4, CD8, CD62L, CD45RA, CD44 and CXCR3 from the 4 gated t-SNE in FIG. 8A overlaid on the expression of the total population (shaded) is shown in FIG. 8C. […] Statistically significant differences are indicated as […] (*), P<0.01 (**), P<0.001 (***), P<0.0001 (****).
smiles,measurement,setting,value
CC#CC(=O)N1CCC[C@H]1c1nc(-c2ccc(C(=O)Nc3ccccn3)cc2)c2c(N)nccn12 [compound of Formula (II)],Cmax,[1],1800 nM
same,"cytolytic function of anti-CD19 CAR T cells against K562-CD19 target cells, normalized to untreated control",anti-CD19 CAR T cells [2],no negative impact on cytolytic function
same,phenotype of cells as central (TCM) or effector (TEM) memory subsets by CCR7 and CD45RA,anti-CD19 CAR T cells [3],did not affect the phenotype of cells as central (TCM) or effector (TEM) memory subsets
same,pIC50,RLK/TXK,~6.43
same,tumor growth compared with CAR T administered with vehicle alone,"[4]; with CAR T, drinking water 25 mg/kg/day",significantly (P<0.001) decreased tumor growth
same,median survival compared to suboptimal anti-CD19 CAR T cell dose+vehicle,"[4]; with CAR-T cells, drinking water 25 mg/kg/day from day 4, p<0.001",increased median survival
same,expansion as measured by population doublings following multiple rounds of restimulation,"anti-CD19 CAR-T cells; by day 18, CAR+ T cells from two of the three donors, each concentration assessed",observed to be enhanced
same,cell counts after five rounds of stimulation (day 18),"anti-CD19 CAR-T cells; donor 3, highest concentration tested","Non-significant, increased cell counts"
same,population 2 (CD8+CD44hiCXCR3hiCD45RAloCD62Lhi) and population 4 (CD4+CD44hiCXCR3intCD45RAhiCD62Lhi) compared to control mice,[5],An increase
same,population 2 as share of CAR-T cells,[5]; pooled from three mice,29.2%
same,population 4 as share of CAR-T cells,[5]; pooled from three mice,8.4%
